We go through eight compounds from PubChem BioAssay (NCI).

Structures are written as SMILES.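 96-well plates; 48 h exposure; 5 concentrations. Endpoints by linear interpolation between flanking doses. Not reached: highest tested concentration assigned. TGI is the concentration that stops growth completely.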

Test systems include KM12 colon; RXF 393 renal; SF-295 CNS; HS 578T breast; NCI/ADR-RES ovarian; MALME-3M melanoma; HCT-116 colon; A498 renal; MCF7 breast; HCT-15 colon; MDA-MB-435; RPMI-8226 leukemia; OVCAR-5 ovarian; HOP-92 NSCLC; MOLT-4 leukemia; SW-620 colon; COLO 205 colon; M14 melanoma; A549 NSCLC; HCC-2998 colon.
Common to all, as to assay: NCI anticancer screen, dose series, 48 h

Take `CC(C)(C)c1cc(C2NCCO2)cc(C(C)(C)C)c1O` (stereo not drawn): the TGI in the experiment on KM12 colon is greater than 100 µM; with RXF 393 renal it was 37.8 µM; with SF-295 CNS, greater than 100 µM; in the experiment with HS 578T breast, greater than 100 µM; with NCI/ADR-RES ovarian, greater than 100 µM; in the experiment with MALME-3M melanoma, greater than 100 µM. Besides, the TGI with HCT-116 colon, in the experiment on A498 renal, with MCF7 breast, in the experiment with HCT-15 colon, in the experiment on MDA-MB-435 and in the experiment on RPMI-8226 leukemia was greater than 100 µM each time. Besides, the TGI in the experiment on OVCAR-5 ovarian, in the experiment on HOP-92 NSCLC, in the experiment on MOLT-4 leukemia, in the experiment with SW-620 colon and with COLO 205 colon was greater than 100 µM throughout.
As to `O=C(NC(CS)C(=O)O)c1cccc2c(=O)c3ccccc3[nH]c12` (stereo not drawn), the TGI in the experiment with KM12 colon, in the experiment with SF-295 CNS, in the experiment with HS 578T breast, with NCI/ADR-RES ovarian, with MALME-3M melanoma and in the experiment with HCT-116 colon was greater than 100 µM each time. In addition, the TGI in the experiment on A498 renal, with MCF7 breast, with HCT-15 colon, with MDA-MB-435, with RPMI-8226 leukemia and in the experiment on OVCAR-5 ovarian was greater than 100 µM in each case. Moreover, the TGI in the experiment on M14 melanoma, in the experiment with HOP-92 NSCLC, in the experiment on MOLT-4 leukemia, in the experiment with SW-620 colon, in the experiment on A549 NSCLC and with COLO 205 colon was greater than 100 µM in each case.
For the compound `COc1cc(CNc2ccc3nc4n(c(=O)c3c2)CCCCC4)cc(OC)c1OC`, the TGI in the experiment with KM12 colon, with RXF 393 renal, in the experiment on SF-295 CNS, with HS 578T breast, in the experiment on NCI/ADR-RES ovarian and with MALME-3M melanoma was greater than 100 µM throughout. Besides, the TGI with HCT-116 colon, in the experiment on A498 renal, with MCF7 breast, in the experiment on HCT-15 colon, in the experiment with MDA-MB-435 and in the experiment with RPMI-8226 leukemia was greater than 100 µM each time. The TGI in the experiment with OVCAR-5 ovarian, with M14 melanoma, with HOP-92 NSCLC, in the experiment with MOLT-4 leukemia, with SW-620 colon and in the experiment on A549 NSCLC was greater than 100 µM in each case. In addition, the TGI in the experiment on COLO 205 colon is greater than 100 µM.
`COc1c(C)c2c(c(=O)c3c(C)cccc3n2C)c2c1c(=O)c1c(C)cccc1n2C`: the TGI in the experiment on KM12 colon, with RXF 393 renal, in the experiment on SF-295 CNS, in the experiment on HS 578T breast, in the experiment on NCI/ADR-RES ovarian and in the experiment on MALME-3M melanoma was greater than 10 µM in each case. Moreover, the TGI in the experiment with HCT-116 colon, in the experiment on A498 renal, with HCC-2998 colon, with MCF7 breast, in the experiment with HCT-15 colon and in the experiment with MDA-MB-435 was greater than 10 µM in each case. In addition, the TGI with RPMI-8226 leukemia, in the experiment with OVCAR-5 ovarian, in the experiment on M14 melanoma, with HOP-92 NSCLC, in the experiment on MOLT-4 leukemia and with A549 NSCLC was greater than 10 µM throughout. For the same compound, the TGI in the experiment with COLO 205 colon is greater than 10 µM.
`Cc1nc2sc3ccccc3n2c(=O)c1N=Nc1ccc(Br)cc1`: the TGI with KM12 colon, with RXF 393 renal, with SF-295 CNS, with HS 578T breast, in the experiment on NCI/ADR-RES ovarian and in the experiment on MALME-3M melanoma was greater than 100 µM in each case. For the same compound, the TGI in the experiment on HCT-116 colon, in the experiment on A498 renal, in the experiment on MCF7 breast, in the experiment with HCT-15 colon, in the experiment with MDA-MB-435 and with RPMI-8226 leukemia was greater than 100 µM each time. Besides, the TGI in the experiment on OVCAR-5 ovarian, with M14 melanoma, in the experiment with HOP-92 NSCLC, with MOLT-4 leukemia, with SW-620 colon and in the experiment on A549 NSCLC was greater than 100 µM in each case. The TGI in the experiment with COLO 205 colon was greater than 100 µM.
Regarding `CCN1CCN(c2ccc(Nc3ccnc4ccc5c(nnn5C)c34)cc2)CC1`, the TGI with KM12 colon was found to be 12.4 µM; in the experiment with RXF 393 renal, 23.4 µM; in the experiment on SF-295 CNS it was 22.7 µM; in the experiment with HS 578T breast, 31.9 µM; in the experiment with NCI/ADR-RES ovarian, 36.7 µM; in the experiment with MALME-3M melanoma, 23.6 µM. The TGI came to 14.3 µM with HCT-116 colon; 29.5 µM with A498 renal; 6.94 µM in the experiment with HCC-2998 colon; 14.8 µM with MCF7 breast; 16.4 µM in the experiment with HCT-15 colon; 17.9 µM in the experiment with MDA-MB-435. Further, the TGI came to 24.2 µM with OVCAR-5 ovarian; 23.9 µM with M14 melanoma; 21.8 µM with HOP-92 NSCLC; 35.1 µM in the experiment with MOLT-4 leukemia; 19 µM with SW-620 colon; 22.3 µM with A549 NSCLC. Moreover, the TGI in the experiment with COLO 205 colon is 15.4 µM.
Regarding `COC(=O)c1ccccc1C1CN=NC12Cc1ccc(C)c(C)c1C2=O` (stereo not drawn), the TGI in the experiment with KM12 colon, in the experiment on RXF 393 renal, with SF-295 CNS, with HS 578T breast, in the experiment with NCI/ADR-RES ovarian and with MALME-3M melanoma was greater than 100 µM each time. For the same compound, the TGI in the experiment on HCT-116 colon, in the experiment with A498 renal, in the experiment with HCC-2998 colon, in the experiment on MCF7 breast, in the experiment on HCT-15 colon and in the experiment with MDA-MB-435 was greater than 100 µM in each case. Besides, the TGI with OVCAR-5 ovarian, with M14 melanoma, with HOP-92 NSCLC, in the experiment with MOLT-4 leukemia, in the experiment with SW-620 colon and in the experiment with A549 NSCLC was greater than 100 µM in each case. Besides, the TGI with COLO 205 colon is greater than 100 µM.
For the compound `CC(C)=NN/C(=N\S(=O)(=O)c1ccc(C)cc1)Nc1ccc(Cl)cc1`, the TGI in the experiment with KM12 colon, in the experiment with SF-295 CNS, in the experiment with HS 578T breast, in the experiment with NCI/ADR-RES ovarian, in the experiment with MALME-3M melanoma and in the experiment on HCT-116 colon was greater than 100 µM throughout. Further, the TGI in the experiment on A498 renal, in the experiment with MCF7 breast, with HCT-15 colon, in the experiment with MDA-MB-435, in the experiment with RPMI-8226 leukemia and in the experiment with OVCAR-5 ovarian was greater than 100 µM in each case. The TGI with M14 melanoma, in the experiment with HOP-92 NSCLC, in the experiment with MOLT-4 leukemia, with SW-620 colon, in the experiment on A549 NSCLC and in the experiment with COLO 205 colon was greater than 100 µM each time.
